# Assays:
# human plasma = assay: Activated partial thromboplastin time (APTT) test, human plasma; assay type: biochemical; conditions: for Increase in Coagulation Time: increase in coagulation time (seconds) from a 1 μg/ml increase in concentration, linear regression, pooled plasma from 90 donors; for anticoagulant activity (in words): APTT test; for Relative Increase in Coagulation Time: Human plasma, vs untreated control; for Coagulation Time: PI-88 8.6 μg/ml
# Source text: Heparin (anticoagulant activity 120 U/mg) is included for comparison. Data obtained with pooled plasma from 90 donors, the coagulation time of the plasma being 30.8 seconds in the absence of inhibitors. Results representative of four separate experiments. Table 1 summarises the anticoagulant activity of 19 sulfated oligosaccharides, as measured by the activated partial thromboplastin time (APTT) test. Similar results were obtained with the thrombin time test. […] Chain length, monosaccharide makeup and linkage, all appear to be critical factors. […] Furthermore, a striking feature of the maltose series is that chain elongation y a single residue from the maltotetraose to maltopentaose results in a 19-fold increase in anticoagulant activity. […] The glucose series of oligosaccharides emphasizes the importance of monosaccharide linkage on activity. […] There are additional, more subtle, effects of monosaccharide linkage on anticoagulant activity. […] Values | obtained from a linear regression analysis of the coagulation data. |^a Coagulation times estimated using the APTT test. Similar results | were obtained in duplicate assays. Concentrations of heparin and | mannopentaose phosphate SO4 (PI-88) were used which prolonged the |^a Coagulation times estimated by the APTT test. Data expressed as fold | increase in coagulation time induced by the anticoagulant compared with | untreated control.
# marmoset plasma = assay: APTT test, marmoset plasma; assay type: biochemical; conditions: for Relative Increase in Coagulation Time: APTT, Marmoset plasma, vs untreated control
# Source text: (§1) Some additional biological properties of one of the sulfated oligosaccharides, PI-88, were defined. […] Protamine is frequently used clinically to reverse the anticoagulant effects of heparin and Fragmin. […] Finally, PI-88 was examined for its ability to act as an anticoagulant in a range of mammalian species. […] Thus, sulfated oligosaccharides potentially can be used as anticoagulants/antithrombotics not only in humans but in a wide range of mammalian species.
# (§2) ^a Coagulation times estimated by the APTT test. Data expressed as fold
# (§3) increase in coagulation time induced by the anticoagulant compared with […]
# sheep plasma = assay: APTT test, sheep plasma; assay type: biochemical; conditions: for Relative Increase in Coagulation Time: APTT, Sheep plasma, vs untreated control
# Source text: as §1, §2, §3
# rabbit plasma = assay: APTT test, rabbit plasma; assay type: biochemical; conditions: for Relative Increase in Coagulation Time: APTT, Rabbit plasma, vs untreated control
# Source text: as §1, §2, §3
# dog plasma = assay: APTT test, dog plasma; assay type: biochemical; conditions: for Relative Increase in Coagulation Time: APTT, Dog plasma, vs untreated control
# Source text: as §1, §2, §3
# rat plasma = assay: APTT test, rat plasma; assay type: biochemical; conditions: for Relative Increase in Coagulation Time: APTT, Rat plasma, vs untreated control
# Source text: as §1, §2, §3
# mouse plasma = assay: APTT test, mouse plasma; assay type: biochemical; conditions: for Relative Increase in Coagulation Time: APTT, Mouse plasma, vs untreated control
# Source text: as §1, §2, §3
# Human platelet = assay: Collagen- or ADP-induced platelet aggregation (platelet aggregometer); assay type: cell-based; conditions: for Relative Rate of Platelet Aggregation, ADP-induced Aggregation: ADP 10 μM, control without PI-88 81 ± 1; for Relative Rate of Platelet Aggregation, ADP-induced Aggregation / Relative Rate of Platelet Aggregation, Collagen-induced Aggregation: ± SD; for Relative Rate of Platelet Aggregation, Collagen-induced Aggregation: collagen 9 μg/ml, control without PI-88 114 ± 8
# Procedure: ^a Human platelet aggregation induced by either collagen (9 μg/ml)
# or ADP (10 μM) and relative rates of platelet aggregation estimated, in
# the presence or absence of PI-88, using a platelet aggregometer. Data ±
# SD representative of two platelet donors.
# thrombin = assay: Anti-thrombin III mediated anti-thrombin activity, chromogenic assays; assay type: biochemical
# Source text: (§4) The manner by which the sulfated oligosaccharides inhibit the coagulation cascade was then investigated.
# factor Xa = assay: Anti-thrombin III mediated anti-factor Xa activity, chromogenic (Helena) anti-Xa assay; assay type: biochemical; conditions: FIG. 3
# Procedure: Factor Xa activity was determined with the chromogenic (Helena) anti-Xa assay run on a Roche COBAS Fara biochemistry analyser.
# as §4
# heparin cofactor II = assay: Plasma free system: purified heparin cofactor II, thrombin and chromogenic thrombin substrate; assay type: biochemical; conditions: data not shown
# Source text: as §4
# [1] = Inactivation of anticoagulant activity by protamine; assay type: biochemical
# Source text: as §1
compound,measurement,setting,value
O=S(=O)(O)OC[C@H]1O[C@@](COS(=O)(=O)O)(O[C@H]2O[C@H](COS(=O)(=O)O)[C@@H](OS(=O)(=O)O)[C@H](OS(=O)(=O)O)[C@H]2OS(=O)(=O)O)[C@@H](OS(=O)(=O)O)[C@@H]1OS(=O)(=O)O [Sucrose SO4],Increase in Coagulation Time,human plasma; APTT,0.39 s/µg
Mannopentaose phosphate SO2 (PI-88),Increase in Coagulation Time,human plasma; APTT,5.67 s/µg
Maltoetraose SO4,Increase in Coagulation Time,human plasma; APTT,0.28 s/µg
Maltoheptaose SO4,anticoagulant activity (in words),human plasma,quite effective anticoagulants
same,Increase in Coagulation Time,human plasma; APTT,5.9 s/µg
Laminariheptaose SO4,Increase in Coagulation Time,human plasma; APTT,0.5 s/µg
Cellohexaose SO4,Increase in Coagulation Time,human plasma; APTT,4.8 s/µg
Mannopentaose phosphate SO4 (PI-88),Increase in Coagulation Time,human plasma; APTT,5.04 s/µg
Maltopentaose SO4,anticoagulant activity (in words),human plasma,quite effective anticoagulants
same,Increase in Coagulation Time,human plasma; APTT,5.25 s/µg
same,increase in anticoagulant activity on chain elongation from maltotetraose to maltopentaose,"human plasma; APTT, relative to the maltotetraose sulfate",19 fold
Cellotetraose SO4,anticoagulant activity (in words),human plasma,reasonably potent anticoagulant
same,Increase in Coagulation Time,human plasma; APTT,4.2 s/µg
Maltohexaose SO4,anticoagulant activity (in words),human plasma,quite effective anticoagulants
same,Increase in Coagulation Time,human plasma; APTT,5.85 s/µg
Isomaltopentaose SO4,anticoagulant activity (in words),human plasma,substantially less effective anticoagulant
same,Increase in Coagulation Time,human plasma; APTT,1.85 s/µg
Maltotriose SO4,Increase in Coagulation Time,human plasma; APTT,0.25 s/µg
Chitosan hexamer SO4,anticoagulant activity (in words),human plasma,negligible anticoagulant activity
same,Increase in Coagulation Time,human plasma; APTT,0.4 s/µg
Isomaltohexaose SO4,Increase in Coagulation Time,human plasma; APTT,6.56 s/µg
Mannopentaose SO4,Increase in Coagulation Time,human plasma; APTT,5.32 s/µg
Maltose SO4,Increase in Coagulation Time,human plasma; APTT,0.31 s/µg
Cellopentaose SO4,Increase in Coagulation Time,human plasma; APTT,3.5 s/µg
Laminarihexaose SO4,Increase in Coagulation Time,human plasma; APTT,0.9 s/µg
mannopentaose phosphate sulfate [PI-88],Relative Increase in Coagulation Time,"human plasma; APTT, PI-88 2.24 μg/ml",1.42 fold
same,Relative Increase in Coagulation Time,"human plasma; APTT, PI-88 22.4 μg/ml",4.65 fold
same,Coagulation Time,"human plasma; APTT, Mean ± SD of 20 normal donors",88.3 ± 11.9 s
same,Coagulation Time,"human plasma; APTT, Normal Donor 1",77.3 s
same,Coagulation Time,"human plasma; APTT, Normal Donor 2",89.6 s
same,Coagulation Time,"human plasma; APTT, Normal Donor 3",94.0 s
same,Coagulation Time,"human plasma; APTT, Normal Donor 4",85.6 s
same,Coagulation Time,"human plasma; APTT, Normal Donor 5",101.9 s
same,Coagulation Time,"human plasma; APTT, Normal Donor 6",95.0 s
same,Coagulation Time,"human plasma; APTT, Normal Donor 7",115.3 s
same,Coagulation Time,"human plasma; APTT, Normal Donor 8",101.9 s
same,Coagulation Time,"human plasma; APTT, Normal Donor 9",85.2 s
same,Coagulation Time,"human plasma; APTT, Normal Donor 10",78.0 s
same,Coagulation Time,"human plasma; APTT, Normal Donor 11",93.6 s
same,Coagulation Time,"human plasma; APTT, Normal Donor 12",82.9 s
same,Coagulation Time,"human plasma; APTT, Normal Donor 13",85.5 s
same,Coagulation Time,"human plasma; APTT, Normal Donor 14",89.7 s
same,Coagulation Time,"human plasma; APTT, Normal Donor 15",81.2 s
same,Coagulation Time,"human plasma; APTT, Normal Donor 16",72.6 s
same,Coagulation Time,"human plasma; APTT, Normal Donor 17",108.0 s
same,Coagulation Time,"human plasma; APTT, Normal Donor 18",70.4 s
same,Coagulation Time,"human plasma; APTT, Normal Donor 19",93.6 s
same,Coagulation Time,"human plasma; APTT, Normal Donor 20",72.6 s
same,ability to act as an anticoagulant (in words),human plasma; human plasma,effective anticoagulant
same,Relative Increase in Coagulation Time,marmoset plasma; PI-88 2.24 μg/ml,1.40 fold
same,Relative Increase in Coagulation Time,marmoset plasma; PI-88 22.4 μg/ml,2.86 fold
same,ability to act as an anticoagulant (in words),marmoset plasma; marmoset plasma,effective anticoagulant
same,Relative Increase in Coagulation Time,sheep plasma; PI-88 2.24 μg/ml,1.88 fold
same,Relative Increase in Coagulation Time,sheep plasma; PI-88 22.4 μg/ml,> 4.98 fold
same,ability to act as an anticoagulant (in words),sheep plasma; sheep plasma,effective anticoagulant
same,Relative Increase in Coagulation Time,rabbit plasma; PI-88 2.24 μg/ml,1.02 fold
same,Relative Increase in Coagulation Time,rabbit plasma; PI-88 22.4 μg/ml,1.20 fold
same,ability to act as an anticoagulant (in words),rabbit plasma; rabbit plasma,only weakly active
same,Relative Increase in Coagulation Time,dog plasma; PI-88 2.24 μg/ml,1.24 fold
same,Relative Increase in Coagulation Time,dog plasma; PI-88 22.4 μg/ml,2.42 fold
same,ability to act as an anticoagulant (in words),dog plasma; dog plasma,effective anticoagulant
same,Relative Increase in Coagulation Time,rat plasma; PI-88 2.24 μg/ml,1.54 fold
same,Relative Increase in Coagulation Time,rat plasma; PI-88 22.4 μg/ml,> 5.88 fold
same,ability to act as an anticoagulant (in words),rat plasma; rat plasma,effective anticoagulant
same,Relative Increase in Coagulation Time,mouse plasma; PI-88 2.24 μg/ml,1.13 fold
same,Relative Increase in Coagulation Time,mouse plasma; PI-88 22.4 μg/ml,3.03 fold
same,ability to act as an anticoagulant (in words),mouse plasma; mouse plasma,effective anticoagulant
same,inhibition of collagen- and ADP-induced platelet aggregation (in words),Human platelet,very weak inhibitor
same,"Relative Rate of Platelet Aggregation, ADP-induced Aggregation",Human platelet; PI-88 21 μg/ml,74 ± 1
same,"Relative Rate of Platelet Aggregation, ADP-induced Aggregation",Human platelet; PI-88 210 μg/ml,72 ± 1
same,"Relative Rate of Platelet Aggregation, ADP-induced Aggregation",Human platelet; PI-88 2100 μg/ml,56 ± 2
same,"Relative Rate of Platelet Aggregation, Collagen-induced Aggregation",Human platelet; PI-88 21 μg/ml,97 ± 8
same,"Relative Rate of Platelet Aggregation, Collagen-induced Aggregation",Human platelet; PI-88 210 μg/ml,86 ± 10
same,"Relative Rate of Platelet Aggregation, Collagen-induced Aggregation",Human platelet; PI-88 2100 μg/ml,79 ± 0
same,enhancement of the ability of anti-thrombin III to inhibit thrombin (in words),thrombin; initial studies,did not enhance
same,fold less active than heparin in enhancing anti-thrombin III mediated anti-thrombin activity,"thrombin; two different chromogenic assays, data not shown",700-7000 fold
same,"fold less active than heparin or LMW heparin (Fragmin), anti-thrombin III mediated factor Xa inhibitory activity",factor Xa,100-1000 fold
same,enhancement of the ability of heparin cofactor II to inhibit thrombin (in words),heparin cofactor II,as effectively as heparin and dermatan sulfate
same,inactivation of the anticoagulant activity by protamine (in words),[1],effectively inactivate
Laminaritetraose SO4,Increase in Coagulation Time,human plasma; APTT,2.9 s/µg

# From patent publication US6271215A, “Sulfated oligosaccharides having anticoagulant/antithrombotic activity” (The Australian National University, priority 1997, dated 2001)
